Source: PubChem BioAssay (NCI)
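These data come from cells grown in 96-well plates and exposed to compound for 48 hours at five concentrations. Here, GI50 denotes the concentration required for 50% inhibition of growth. TGI marks complete inhibition of growth.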

Tests used:
Experiment in all cases: inhibition of tumour cell growth, NCI panel, 48 h
OVCAR-3 ovarian = test system: OVCAR-3 ovarian
MDA-N = test system: MDA-N
IGROV1 ovarian = test system: IGROV1 ovarian
HL-60(TB) leukemia = test system: HL-60(TB) leukemia
BT-549 breast = test system: BT-549 breast
TK-10 renal = test system: TK-10 renal
RPMI-8226 leukemia = test system: RPMI-8226 leukemia
COLO 205 colon = test system: COLO 205 colon
SNB-75 CNS = test system: SNB-75 CNS
MCF7 breast = test system: MCF7 breast

| SMILES | TGI (OVCAR-3 ovarian) | TGI (MDA-N) | TGI (IGROV1 ovarian) | TGI (HL-60(TB) leukemia) | TGI (BT-549 breast) | TGI (TK-10 renal) | TGI (RPMI-8226 leukemia) | TGI (COLO 205 colon) | TGI (SNB-75 CNS) | TGI (MCF7 breast) | GI50 (IGROV1 ovarian) | GI50 (HL-60(TB) leukemia) | GI50 (BT-549 breast) | GI50 (TK-10 renal) | GI50 (RPMI-8226 leukemia) | GI50 (SNB-75 CNS) | GI50 (OVCAR-3 ovarian) | GI50 (COLO 205 colon) | GI50 (MCF7 breast) |
| --- | --- | --- | --- | --- | --- | --- | --- | --- | --- | --- | --- | --- | --- | --- | --- | --- | --- | --- | --- |
| Cc1ccc(S(=O)(=O)Nc2cc(=O)[nH]c3c2CCC3)cc1 | > 100 µM | > 100 µM | > 100 µM | > 100 µM | > 100 µM | > 100 µM | > 100 µM | > 100 µM | > 100 µM | > 100 µM | – | – | – | – | – | – | – | – | – |
| CCOC(=O)/C=C/C1=C(Br)[C@@]2(C)CC[C@@H]3c4ccc(O)cc4CC[C@H]3[C@@H]2C1 | 20.5 µM | 26.7 µM | 24.7 µM | 34 µM | 27.3 µM | 31.7 µM | 6.6 µM | 32.2 µM | – | 26.7 µM | – | – | – | – | – | – | – | – | – |
| CS(=O)(=O)Nc1cccc(-c2ccc3ncnc(Nc4cncc(Cl)c4)c3c2)c1 | – | – | 4.06 µM | 9.2 µM | 7.39 µM | 5.44 µM | 6.77 µM | – | > 100 µM | – | 0.533 µM | 2.66 µM | 2.34 µM | 0.748 µM | 2.14 µM | 2.77 µM | – | – | – |
| C#C[C@]1(O)[C@@H](CO)O[C@@H](n2ccc(=O)[nH]c2=O)[C@@H]1O | – | 1.71 µM | 2.59 µM | > 100 µM | – | > 100 µM | > 100 µM | 0.173 µM | – | > 100 µM | – | – | – | – | – | – | – | – | – |
| CN(CCN1C(=O)c2cccc3cccc(c23)C1=O)CCN1C(=O)c2cccc3cccc(c23)C1=O | 74.8 µM | – | > 100 µM | > 100 µM | > 100 µM | 27.7 µM | – | 16.5 µM | 49.9 µM | > 100 µM | – | – | – | – | – | – | – | – | – |
| NC(N)=N/N=C/c1c(-c2cccs2)nc2n1CCS2 | 32.7 µM | – | > 100 µM | – | 44.8 µM | 46.5 µM | 39.9 µM | 40.4 µM | – | 35.1 µM | 34.9 µM | – | 21.4 µM | 18.3 µM | 18.6 µM | – | 15.5 µM | 18.1 µM | 17.6 µM |
| Oc1ccc(Cl)cc1C1=Nn2c(COc3ccc4c(c3)CCCC4)nnc2SC1 | 29.8 µM | 30.2 µM | 26.3 µM | 38.2 µM | 34.6 µM | 20.1 µM | 19.3 µM | 31.3 µM | – | 32.5 µM | – | – | – | – | – | – | – | – | – |
| c1ccc(C[N+]23C(CC[C@H]2c2ccccc2)CC[C@H]3c2ccccc2)cc1 (stereo partly specified) | 90 µM | 98.9 µM | > 100 µM | 57.4 µM | – | > 100 µM | 26.4 µM | 31.2 µM | 75 µM | > 100 µM | – | – | – | – | – | – | – | – | – |
| OC1CCSc2ccccc21 (stereo unspecified) | > 100 µM | – | > 100 µM | – | – | – | > 100 µM | > 100 µM | – | – | – | – | – | – | – | – | – | – | – |
| Nc1csc(-c2scc3c2OCCO3)c1N | 36.1 µM | 38.8 µM | 54.8 µM | 50.8 µM | 50.2 µM | 87.3 µM | > 100 µM | 91.4 µM | – | 33.4 µM | – | – | – | – | – | – | – | – | – |
| Cc1cc(=O)[nH]c(S(=O)(=O)NC(=O)Nc2cccc(Cl)c2)n1 | > 100 µM | > 100 µM | > 100 µM | > 31.2 µM | > 100 µM | > 100 µM | > 100 µM | > 100 µM | > 100 µM | > 100 µM | – | – | – | – | – | – | – | – | – |
| CC1(C)CC(C(=O)OCCCCCCCCCCC[P+](c2ccccc2)(c2ccccc2)c2ccccc2)C(C)(C)N1O (stereo unspecified) | 0.835 µM | – | – | 0.13 µM | 1.05 µM | 1.67 µM | – | 0.33 µM | – | 0.836 µM | – | 0.0355 µM | 0.116 µM | 0.362 µM | – | – | 0.132 µM | 0.168 µM | 0.187 µM |
| CCOC(=O)c1cccc(N=Nc2ncc(/C=C/C(=O)OC)[nH]2)c1 | 71.1 µM | > 100 µM | 83.8 µM | 30 µM | > 100 µM | > 100 µM | 40.5 µM | 49 µM | 92.4 µM | 86.2 µM | – | – | – | – | – | – | – | – | – |
| CC(C)(C)COS(=O)OCC(C)(C)C | > 100 µM | > 100 µM | > 100 µM | > 100 µM | > 100 µM | > 100 µM | > 100 µM | > 100 µM | > 100 µM | > 100 µM | – | – | – | – | – | – | – | – | – |
| Fc1c(F)c(F)c(CSc2nc3ccccc3[nH]2)c(F)c1F | > 100 µM | > 100 µM | > 100 µM | > 100 µM | > 100 µM | > 100 µM | > 100 µM | > 100 µM | > 100 µM | > 100 µM | – | – | – | – | – | – | – | – | – |
| CC12OC(C(=O)C13CCC3)C1C(=O)c3c(O)ccc(O)c3C(=O)C12 (stereo unspecified) | 2.71 µM | – | 11.4 µM | 2.39 µM | 16.4 µM | 1.57 µM | 3.11 µM | > 100 µM | 20.1 µM | 6.2 µM | 3.3 µM | 0.569 µM | 5.97 µM | 0.587 µM | 0.336 µM | 4.99 µM | 0.62 µM | 3.14 µM | 1.49 µM |
